Assay results from the NIST ThermoML archive (doi:10.1021/je100909b).

Assay: mn = molality of the nth substance listed, in mol/kg
Details: 101 kPa, Liquid; for speed of sound: Sing-around technique in a fixed-path interferometer

NCC(=O)O [2-aminoacetic acid] + O
Details	speed of sound [m/s]	viscosity [mPa·s]
288.15 K, m1 = 0.05362	1468.9	–
288.15 K, m1 = 0.06844	–	1.149
288.15 K, m1 = 0.1287	1473.1	–
288.15 K, m1 = 0.1393	–	1.159
288.15 K, m1 = 0.191	1476.6	–
288.15 K, m1 = 0.2522	1480.1	–
288.15 K, m1 = 0.2552	–	1.176
288.15 K, m1 = 0.3423	1485.3	–
288.15 K, m1 = 0.3468	–	1.19
288.15 K, m1 = 0.4241	–	1.202
288.15 K, m1 = 0.5002	–	1.213
288.15 K, m1 = 0.5062	1494.9	–
288.15 K, m1 = 0.562	1498.1	–
298.15 K, m1 = 0.05362	1499.5	–
298.15 K, m1 = 0.06025	–	0.8979
298.15 K, m1 = 0.1223	–	0.9055
298.15 K, m1 = 0.1287	1503.4	–
298.15 K, m1 = 0.191	1506.8	–
298.15 K, m1 = 0.1933	–	0.9138
298.15 K, m1 = 0.2522	1510	–
298.15 K, m1 = 0.2798	–	0.9248
298.15 K, m1 = 0.3423	1514.9	–
298.15 K, m1 = 0.4145	–	0.942
298.15 K, m1 = 0.4859	–	0.9507
298.15 K, m1 = 0.5062	1523.9	–
298.15 K, m1 = 0.562	1526.9	–
308.15 K, m1 = 0.05362	1522.5	–
308.15 K, m1 = 0.06295	–	0.7261
308.15 K, m1 = 0.1083	1525.3	–
308.15 K, m1 = 0.1248	–	0.7325
308.15 K, m1 = 0.1664	1528.2	–
308.15 K, m1 = 0.2476	–	0.7455
308.15 K, m1 = 0.263	1533.1	–
308.15 K, m1 = 0.3345	–	0.7536
308.15 K, m1 = 0.3737	1538.8	–
308.15 K, m1 = 0.4195	–	0.7624
308.15 K, m1 = 0.4709	–	0.7672
308.15 K, m1 = 0.4967	1545.2	–
318.15 K, m1 = 0.05362	1539	–
318.15 K, m1 = 0.06088	–	0.6017
318.15 K, m1 = 0.1248	–	0.6064
318.15 K, m1 = 0.1287	1542.7	–
318.15 K, m1 = 0.191	1545.7	–
318.15 K, m1 = 0.2476	–	0.6176
318.15 K, m1 = 0.2522	1548.7	–
318.15 K, m1 = 0.3345	–	0.6253
318.15 K, m1 = 0.3423	1553.1	–
318.15 K, m1 = 0.4195	–	0.6329
318.15 K, m1 = 0.4709	–	0.6356
318.15 K, m1 = 0.5062	1561.3	–
318.15 K, m1 = 0.562	1564.1	–

CCC(N)C(=O)O (stereo not drawn) [(.+-.)-α-aminobutyric acid] + O
Details	speed of sound [m/s]	viscosity [mPa·s]
288.15 K, m1 = 0.05062	1469.9	–
288.15 K, m1 = 0.05106	–	1.159
288.15 K, m1 = 0.09089	–	1.181
288.15 K, m1 = 0.1107	1474.7	–
288.15 K, m1 = 0.1764	–	1.22
288.15 K, m1 = 0.2175	1483.4	–
288.15 K, m1 = 0.2253	–	1.242
288.15 K, m1 = 0.2685	–	1.262
288.15 K, m1 = 0.2738	1488	–
288.15 K, m1 = 0.3587	1494.9	–
288.15 K, m1 = 0.4044	–	1.324
288.15 K, m1 = 0.4523	1502.7	–
298.15 K, m1 = 0.03245	–	0.8996
298.15 K, m1 = 0.05413	–	0.9064
298.15 K, m1 = 0.07577	–	0.9126
298.15 K, m1 = 0.108	–	0.9222
298.15 K, m1 = 0.1107	1505.2	–
298.15 K, m1 = 0.1433	–	0.9326
298.15 K, m1 = 0.1888	–	0.9459
298.15 K, m1 = 0.2162	–	0.9534
298.15 K, m1 = 0.2175	1513.6	–
298.15 K, m1 = 0.2738	1518	–
298.15 K, m1 = 0.3587	1524.7	–
298.15 K, m1 = 0.4523	1532.1	–
308.15 K, m1 = 0.04831	–	0.731
308.15 K, m1 = 0.05062	1523.4	–
308.15 K, m1 = 0.08861	–	0.7438
308.15 K, m1 = 0.1107	1527.7	–
308.15 K, m1 = 0.1735	–	0.7667
308.15 K, m1 = 0.2175	1535.4	–
308.15 K, m1 = 0.2198	–	0.7794
308.15 K, m1 = 0.2655	–	0.7915
308.15 K, m1 = 0.2738	1539.4	–
308.15 K, m1 = 0.3587	1545.5	–
308.15 K, m1 = 0.3962	–	0.8261
308.15 K, m1 = 0.4523	1552.3	–
318.15 K, m1 = 0.04911	–	0.6052
318.15 K, m1 = 0.05062	1539.9	–
318.15 K, m1 = 0.08886	–	0.6122
318.15 K, m1 = 0.1107	1544	–
318.15 K, m1 = 0.1735	–	0.6267
318.15 K, m1 = 0.2175	1551.2	–
318.15 K, m1 = 0.2196	–	0.6354
318.15 K, m1 = 0.2658	–	0.6432
318.15 K, m1 = 0.2738	1555.1	–
318.15 K, m1 = 0.3587	1560.9	–
318.15 K, m1 = 0.3964	–	0.6658
318.15 K, m1 = 0.4523	1567.3	–
